Reference: PubChem BioAssay (NCI)
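Assay format: 96-well plates, 48-hour exposure. GI50 = concentration required for 50% inhibition of growth. TGI is the concentration that stops growth completely.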

How the values were obtained:
Assay in all cases: growth of human tumour cells (NCI), 48 h
786-0 renal = system: 786-0 renal
A498 renal = system: A498 renal
A549 NSCLC = system: A549 NSCLC
ACHN renal = system: ACHN renal
BT-549 breast = system: BT-549 breast
CAKI-1 renal = system: CAKI-1 renal
CCRF-CEM leukemia = system: CCRF-CEM leukemia
COLO 205 colon = system: COLO 205 colon
DU-145 prostate = system: DU-145 prostate
EKVX NSCLC = system: EKVX NSCLC
HCC-2998 colon = system: HCC-2998 colon
HCT-116 colon = system: HCT-116 colon
HCT-15 colon = system: HCT-15 colon
HL-60(TB) leukemia = system: HL-60(TB) leukemia
HOP-62 NSCLC = system: HOP-62 NSCLC
HOP-92 NSCLC = system: HOP-92 NSCLC
HS 578T breast = system: HS 578T breast
HT29 colon = system: HT29 colon
IGROV1 ovarian = system: IGROV1 ovarian
K-562 leukemia = system: K-562 leukemia
KM12 colon = system: KM12 colon
LOX IMVI melanoma = system: LOX IMVI melanoma
M14 melanoma = system: M14 melanoma
MALME-3M melanoma = system: MALME-3M melanoma
MCF7 breast = system: MCF7 breast
MDA-MB-231 breast = system: MDA-MB-231 breast
MDA-MB-435 = system: MDA-MB-435
MOLT-4 leukemia = system: MOLT-4 leukemia
NCI-H226 lung = system: NCI-H226 lung
NCI-H23 lung = system: NCI-H23 lung
NCI-H460 lung = system: NCI-H460 lung
NCI-H522 lung = system: NCI-H522 lung
NCI/ADR-RES ovarian = system: NCI/ADR-RES ovarian
OVCAR-3 ovarian = system: OVCAR-3 ovarian
OVCAR-4 ovarian = system: OVCAR-4 ovarian
OVCAR-5 ovarian = system: OVCAR-5 ovarian
OVCAR-8 ovarian = system: OVCAR-8 ovarian
PC-3 prostate = system: PC-3 prostate
RPMI-8226 leukemia = system: RPMI-8226 leukemia
RXF 393 renal = system: RXF 393 renal
SF-268 CNS = system: SF-268 CNS
SF-295 CNS = system: SF-295 CNS
SF-539 CNS = system: SF-539 CNS
SK-MEL-2 melanoma = system: SK-MEL-2 melanoma
SK-MEL-28 melanoma = system: SK-MEL-28 melanoma
SK-MEL-5 melanoma = system: SK-MEL-5 melanoma
SK-OV-3 ovarian = system: SK-OV-3 ovarian
SN12C renal = system: SN12C renal
SNB-19 CNS = system: SNB-19 CNS
SNB-75 CNS = system: SNB-75 CNS
SR leukemia = system: SR leukemia
SW-620 colon = system: SW-620 colon
T-47D breast = system: T-47D breast
TK-10 renal = system: TK-10 renal
U251 CNS = system: U251 CNS
UACC-257 melanoma = system: UACC-257 melanoma
UACC-62 melanoma = system: UACC-62 melanoma
UO-31 renal = system: UO-31 renal

CCN(CC)c1ccc(/C=N/NC(=O)c2ccc(NS(C)(=O)=O)cc2)c(O)c1
GI50 (786-0 renal): 425 nM | TGI (786-0 renal): 4200 nM | GI50 (A498 renal): 2950 nM | TGI (A498 renal): 25100 nM | GI50 (A549 NSCLC): 1980 nM | TGI (A549 NSCLC): > 48500 nM | GI50 (ACHN renal): 497 nM | TGI (ACHN renal): 20600 nM | GI50 (BT-549 breast): 658 nM | TGI (BT-549 breast): 8610 nM | GI50 (CAKI-1 renal): 434 nM | TGI (CAKI-1 renal): 17700 nM | GI50 (CCRF-CEM leukemia): 169 nM | TGI (CCRF-CEM leukemia): > 100000 nM | GI50 (COLO 205 colon): 356 nM | TGI (COLO 205 colon): 13500 nM | GI50 (DU-145 prostate): 751 nM | TGI (DU-145 prostate): 23300 nM | GI50 (EKVX NSCLC): 574 nM | TGI (EKVX NSCLC): > 63100 nM | GI50 (HCC-2998 colon): 572 nM | TGI (HCC-2998 colon): 19200 nM | GI50 (HCT-116 colon): 330 nM | TGI (HCT-116 colon): 19500 nM | GI50 (HCT-15 colon): 386 nM | TGI (HCT-15 colon): > 68800 nM | GI50 (HL-60(TB) leukemia): 242 nM | GI50 (HOP-62 NSCLC): 267 nM | TGI (HOP-62 NSCLC): 6940 nM | GI50 (HOP-92 NSCLC): 386 nM | TGI (HOP-92 NSCLC): 20500 nM | GI50 (HS 578T breast): 1950 nM | TGI (HS 578T breast): 18300 nM | GI50 (HT29 colon): 475 nM | TGI (HT29 colon): 16700 nM | GI50 (IGROV1 ovarian): 540 nM | TGI (IGROV1 ovarian): > 70300 nM | GI50 (K-562 leukemia): 443 nM | TGI (K-562 leukemia): > 100000 nM | GI50 (KM12 colon): 536 nM | TGI (KM12 colon): 19600 nM | GI50 (LOX IMVI melanoma): 219 nM | TGI (LOX IMVI melanoma): 5300 nM | GI50 (M14 melanoma): 351 nM | TGI (M14 melanoma): 3630 nM | GI50 (MALME-3M melanoma): 788 nM | TGI (MALME-3M melanoma): 11700 nM | GI50 (MCF7 breast): 409 nM | TGI (MCF7 breast): 24500 nM | GI50 (MDA-MB-231 breast): 432 nM | TGI (MDA-MB-231 breast): 34900 nM | GI50 (MDA-MB-435): 734 nM | TGI (MDA-MB-435): 97200 nM | GI50 (MOLT-4 leukemia): 331 nM | TGI (MOLT-4 leukemia): 25600 nM | GI50 (NCI-H226 lung): 1010 nM | TGI (NCI-H226 lung): 31800 nM | GI50 (NCI-H23 lung): 1160 nM | TGI (NCI-H23 lung): 30600 nM | GI50 (NCI-H460 lung): 455 nM | TGI (NCI-H460 lung): 10200 nM | GI50 (NCI-H522 lung): 334 nM | TGI (NCI-H522 lung): 10400 nM | GI50 (NCI/ADR-RES ovarian): 3180 nM | TGI (NCI/ADR-RES ovarian): 98300 nM | GI50 (OVCAR-3 ovarian): 185 nM | TGI (OVCAR-3 ovarian): 26300 nM | GI50 (OVCAR-4 ovarian): 355 nM | TGI (OVCAR-4 ovarian): 42400 nM | GI50 (OVCAR-5 ovarian): 2470 nM | TGI (OVCAR-5 ovarian): > 100000 nM | GI50 (OVCAR-8 ovarian): 355 nM | TGI (OVCAR-8 ovarian): > 34000 nM | GI50 (PC-3 prostate): 369 nM | TGI (PC-3 prostate): > 54000 nM | GI50 (RPMI-8226 leukemia): 2790 nM | TGI (RPMI-8226 leukemia): 16200 nM | GI50 (RXF 393 renal): 788 nM | TGI (RXF 393 renal): 3230 nM | GI50 (SF-268 CNS): 243 nM | TGI (SF-268 CNS): 17300 nM | GI50 (SF-295 CNS): 551 nM | TGI (SF-295 CNS): 14800 nM | GI50 (SF-539 CNS): 426 nM | TGI (SF-539 CNS): 7070 nM | GI50 (SK-MEL-2 melanoma): 2010 nM | TGI (SK-MEL-2 melanoma): 16900 nM | GI50 (SK-MEL-28 melanoma): 444 nM | TGI (SK-MEL-28 melanoma): > 50900 nM | GI50 (SK-MEL-5 melanoma): 853 nM | TGI (SK-MEL-5 melanoma): 21300 nM | GI50 (SK-OV-3 ovarian): 508 nM | TGI (SK-OV-3 ovarian): 20100 nM | GI50 (SN12C renal): 768 nM | TGI (SN12C renal): 62600 nM | GI50 (SNB-19 CNS): 830 nM | TGI (SNB-19 CNS): 30700 nM | GI50 (SNB-75 CNS): 309 nM | TGI (SNB-75 CNS): 5650 nM | GI50 (SR leukemia): 95.4 nM | GI50 (SW-620 colon): 468 nM | TGI (SW-620 colon): > 100000 nM | GI50 (T-47D breast): 2050 nM | TGI (T-47D breast): > 55300 nM | GI50 (TK-10 renal): 833 nM | TGI (TK-10 renal): 39900 nM | GI50 (U251 CNS): 239 nM | TGI (U251 CNS): > 37200 nM | GI50 (UACC-257 melanoma): 568 nM | TGI (UACC-257 melanoma): 18400 nM | GI50 (UACC-62 melanoma): 381 nM | TGI (UACC-62 melanoma): 7100 nM | GI50 (UO-31 renal): 397 nM | TGI (UO-31 renal): 20500 nM
